Test results: US20230167073A1 (Teijin Pharma Limited, priority 2020, published 2023)

target: T1, Human TRPC6 (Homo sapiens, UniProt Q9Y210); experiment: Evaluation of TRPC6 channel inhibitory activity (1), FLIPR Calcium 5 Assay Kit, OAG stimulation (Compound Nos. 1-1293); type: cell-based; settings: Human TRPC6 stably-expressing cells, OAG 30 μM, FLIPR Calcium 5 Assay Kit; read-out: Inhibitory activity (pIC50 class) (converted)
T1 construct: expressed in transfected cells
T1 sequence (Q9Y210 1-931): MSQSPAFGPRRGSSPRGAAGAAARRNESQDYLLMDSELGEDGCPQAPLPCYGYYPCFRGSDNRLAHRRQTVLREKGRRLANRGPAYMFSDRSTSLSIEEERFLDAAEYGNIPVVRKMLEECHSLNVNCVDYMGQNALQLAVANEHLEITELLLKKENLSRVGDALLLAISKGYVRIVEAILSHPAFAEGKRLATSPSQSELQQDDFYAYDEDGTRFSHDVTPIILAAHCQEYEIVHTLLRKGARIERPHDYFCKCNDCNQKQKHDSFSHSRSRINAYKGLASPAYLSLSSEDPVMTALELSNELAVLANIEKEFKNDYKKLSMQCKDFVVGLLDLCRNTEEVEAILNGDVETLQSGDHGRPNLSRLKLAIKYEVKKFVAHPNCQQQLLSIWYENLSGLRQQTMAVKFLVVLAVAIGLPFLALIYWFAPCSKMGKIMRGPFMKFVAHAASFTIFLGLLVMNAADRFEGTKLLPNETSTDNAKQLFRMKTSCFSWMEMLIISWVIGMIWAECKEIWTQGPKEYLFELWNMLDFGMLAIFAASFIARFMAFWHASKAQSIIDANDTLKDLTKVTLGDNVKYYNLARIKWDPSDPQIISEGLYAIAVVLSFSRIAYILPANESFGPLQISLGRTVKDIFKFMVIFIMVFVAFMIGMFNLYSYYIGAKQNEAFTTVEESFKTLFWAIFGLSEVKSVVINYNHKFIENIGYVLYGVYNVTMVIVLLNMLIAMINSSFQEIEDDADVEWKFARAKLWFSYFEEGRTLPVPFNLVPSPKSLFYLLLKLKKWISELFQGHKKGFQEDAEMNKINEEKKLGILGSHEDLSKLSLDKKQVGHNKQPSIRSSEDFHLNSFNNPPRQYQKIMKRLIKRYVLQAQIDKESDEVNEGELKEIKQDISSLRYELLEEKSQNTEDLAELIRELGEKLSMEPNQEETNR
Outline: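 Readout is pIC50 from four-parameter logistic fitting of inhibition of the OAG-evoked (30 μM final) fluorescence calcium signal. Human TRPC6 stable cells are dye-loaded with probenecid, and compound is applied 20 min ahead of agonist.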

Row | IC50 | SMILES
1 | > 1000 nM | Cc1ccc(-c2cc(Oc3cc(C#N)ccc3-c3ccc(CCN)nc3)nc(C)n2)nc1 [Compound 189, 4-[6-(2-aminoethyl)pyridin-3-yl]-3-[2-methyl-6-(5-methylpyridin-2-yl)pyrimidin-4-yl]oxybenzonitrile]
2 | 10 to 1000 nM | Cc1nc(Oc2cc(C#N)ccc2-c2ccc(CCN)nc2)cc(-c2ccc(F)cc2)n1 [Compound 190, 4-[6-(2-aminoethyl)pyridin-3-yl]-3-[6-(4-fluorophenyl)-2-methylpyrimidin-4-yl]oxybenzonitrile]
3 | > 1000 nM | Cc1nc(Oc2cc(C#N)ccc2-c2ccc3c(c2)C(O)C(N)CC3)cc(-c2ccccc2)n1 (stereo not drawn) [Compound 191, 4-(7-amino-8-hydroxy-5,6,7,8-tetrahydronaphthalen-2-yl)-3-(2-methyl-6-phenylpyrimidin-4-yl)oxybenzonitrile]
4 | 10 to 1000 nM | Cc1nc(Oc2cc(C#N)ccc2-n2ncc3c2CCC(N)C3O)cc(-c2ccccc2)n1 (stereo not drawn) [Compound 192, 4-(5-amino-4-hydroxy-4,5,6,7-tetrahydroindazol-1-yl)-3-(2-methyl-6-phenylpyrimidin-4-yl)oxybenzonitrile]
5 | > 1000 nM | Cc1nc(Oc2cc(C#N)ccc2-n2cc3c(n2)CCC(N)C3O)cc(-c2ccccc2)n1 (stereo not drawn) [Compound 193, 4-(5-amino-4-hydroxy-4,5,6,7-tetrahydroindazol-2-yl)-3-(2-methyl-6-phenylpyrimidin-4-yl)oxybenzonitrile]
6 | > 1000 nM | Cc1nc(Oc2cc(C#N)ccc2-c2cccc(CCN)c2)cc(N2CCOCC2)n1 [Compound 194, 4-[3-(2-aminoethyl)phenyl]-3-(2-methyl-6-morpholin-4-ylpyrimidin-4-yl)oxybenzonitrile]
7 | 10 to 1000 nM | Cc1nc(Oc2cc(C#N)ccc2-c2csc(C(O)CN)n2)cc(-c2ccccc2)n1 (stereo not drawn) [Compound 195, 4-[2-(2-amino-1-hydroxyethyl)-1,3-thiazol-4-yl]-3-(2-methyl-6-phenylpyrimidin-4-yl)oxybenzonitrile]
8 | 10 to 1000 nM | N#Cc1ccc(-n2ccc(C(O)CN)n2)c(Oc2cnnc(-c3ccc[nH]3)c2)c1 (stereo not drawn) [Compound 196, 4-[3-(2-amino-1-hydroxyethyl)pyrazol-1-yl]-3-[6-(1H-pyrrol-2-yl)pyridazin-4-yl]oxybenzonitrile]
9 | < 10 nM | Cc1cc(Oc2cc(C#N)ccc2-c2ccc(C(O)CN)cc2)cc(N2CCOCC2)n1 (stereo not drawn) [Compound 197, 4-[4-(2-amino-1-hydroxyethyl)phenyl]-3-(2-methyl-6-morpholin-4-ylpyridin-4-yl)oxybenzonitrile]
10 | < 10 nM | Cn1nc(-c2cccc(F)c2)cc1Oc1cc(C#N)ccc1-c1ccc(C(O)CN)cc1 (stereo not drawn) [Compound 198, 4-[4-(2-amino-1-hydroxyethyl)phenyl]-3-[5-(3-fluorophenyl)-2-methylpyrazol-3-yl]oxybenzonitrile]
11 | < 10 nM | Cn1nc(-c2cccc(F)c2)cc1Oc1cc(C#N)ccc1-c1ccc(CCN)cn1 [Compound 199, 4-[5-(2-aminoethyl)pyridin-2-yl]-3-[5-(3-fluorophenyl)-2-methylpyrazol-3-yl]oxybenzonitrile]
12 | > 1000 nM | Cc1nc(Oc2cc(C#N)ccc2-n2cnc(C(O)CN)c2)cc(-c2ccccc2)n1 (stereo not drawn) [Compound 200, 4-[4-(2-amino-1-hydroxyethyl)imidazol-1-yl]-3-(2-methyl-6-phenylpyrimidin-4-yl)oxybenzonitrile]
13 | > 1000 nM | Cc1cc(Oc2cc(C#N)ccc2-c2ccc(C(=O)CN)cc2)cc(-c2ccccc2)n1 [Compound 201, 4-[4-(2-aminoacetyl)phenyl]-3-(2-methyl-6-phenylpyridin-4-yl)oxybenzonitrile]
14 | < 10 nM | Cn1nc(C2CC2)cc1Oc1cc(C#N)ccc1-c1ccc(CCN)cn1 [Compound 202, 4-[5-(2-aminoethyl)pyridin-2-yl]-3-(5-cyclopropyl-2-methylpyrazol-3-yl)oxybenzonitrile]
15 | 10 to 1000 nM | Cc1cc(Oc2cc(C#N)ccc2-n2ccc(C(O)CN)n2)cc(-c2ccccc2)n1 (stereo not drawn) [Compound 203, 4-[3-(2-amino-1-hydroxyethyl)pyrazol-1-yl]-3-(2-methyl-6-phenylpyridin-4-yl)oxybenzonitrile]
